The subject of experiment [1] is Growth Hormone release. Nature of the experiment: In Vivo GH Release in Rats (i.v., serum GH by RIA). Also on record: species or system Sprague-Dawley rats. The note with it: for In Vivo Release of Growth Hormone in Rat, GH: i.v., serum 10 min after injection. On the procedure: Immature female Sprague-Dawley rats were obtained from the Charles River Laboratories (Wilmington, Mass.). After arrival they were housed at 25° C. with a 14:10 hour light:dark cycle. Water and Purina rat chow were available ad libitum. Pups were kept with their mothers until 21 days of age.
Twenty-six day old rats, six rats per treatment group, were anesthetized interperitoneally with 50 mg/kg of pentobarbital 20 minutes prior to i.v. treatment with peptide. Normal saline with 0.1% gelatin was the vehicle for intravenous (i.v.) injections of the peptides. The anesthetized rats, weighing 55-65 grams, were injected i.v. with the quantity of grown hormone releasing compounds indicated in Table 3. Injection was made as a 0.1 mL solution into the jugular vein.
All animals were sacrificed by guillotine 10 minutes after final test injection (see Table 3). Trunk blood for the determination of blood GH levels was collected following decapitation. After allowing the blood to clot, it was centrifuged and the serum was separated from the clot. Serum was kept frozen until the day of sampling for radioimmunoassay (RIA) determination of growth hormone levels according to the following procedure, as developed by the National Institute of Arthritis, Diabetes and Digestive and Kidney Diseases (NIADDK).
Reagents are generally added to the RIA analysis tubes at a single sitting, at refrigerator temperature (about 4° C.) in the following sequence: • (a) buffer, • (b) “cold” (i.e., non-radioactive) standard or unknown serum sample to be analyzed, • (c) radio-iodinated growth hormone antigen, and • (d) growth hormone antiserum.
Reagent addition is generally carried out so that there is achieved a final RIA tube dilution of about 1:30,000 (antiserum to total liquid volume; vol:vol).
The mixed reagents are then typically incubated at room temperature (about 25° C.) for about 24 hours prior to addition of a second antibody (e.g., goat or rabbit anti-monkey gamma globulin serum) which binds to and causes precipitation of the complexed growth hormone antiserum. Precipitated contents of the RIA tubes are then analyzed for the number of counts in a specified period of time in a gamma scintillation counter. A standard curve is prepared by plotting number of radioactive counts versus growth hormone (GH) level. GH levels of unknown are then determined by reference to the standard curve.
Serum GH was measured by RIA with reagents provided by the National Hormone and Pituitary Program.
Serum levels in Tables 3 and 4 are recorded in ng/mL in terms of the rat GH standard of 0.61 International Units/mg (IU/mg). Data is recorded as the mean ±standard error of the mean (SEM). Statistical analysis was performed with Student's t-test. In Table 3, the results shown are the average of studies with six rats.

Experiment [2] concerns short-statured children with various degrees of GH deficiency. The following applies: cited from earlier work.
For experiment [3], the system named is Growth Hormone release. Kind of experiment: In Vivo Release of Growth Hormone in Adult Beagle Dogs. Also on record: unit not given here. On the procedure:
(§1) In vitro and in vivo activity of certain compounds were determined in rats and adult beagle dogs (in vivo activity only).

Experiment [4] deals with Growth Hormone release. Nature of the experiment: In Vitro Release of Growth Hormone in Rat. In kind it is cell-based. On the procedure:
as §1

Where [5] appears, read: compound at .001 (dose unit not given).
The mark [6] stands for this setting: compound at .003 (dose unit not given).
Where [7] appears, read: compound at .01 (dose unit not given).
[8] abbreviates: compound at 3 (dose unit not given).
Setting [9] is: compound at 10 (dose unit not given).
Setting [10] is: compound at 30 (dose unit not given).
Setting [11] is: compound at .3 (dose unit not given).

“And” between values parts separate entries of the source, which are not always exact repeats. Equal entries are not always repeated. Square brackets hold non-standard residues; d marks the D form. Ends that are not written are not given here. d2Nal = N[C@H](Cc1ccc2ccccc2c1)C(=O)O

Turning to [dA][d2Nal]AW[dF]K-NH2 [GHRP-2], the “GH ng/ml, GHRP-2 (.03)” value in the experiment with Growth Hormone release [1] (rat, GHRP-2 reference standard, dose (.03) (dose unit not given)) is 811 ng/mL. Moreover, the “effect on height velocity compared with chronic recombinant human growth hormone (rhGH) administration” value in experiment [2] (in vivo) is “less effective”. In experiment [2] (short-statured children, 2-3 times per day over a 2 year period), the “rate of height velocity” value is on record as “accelerated”.

As for `CCN(CC)C(=O)C1CCCNC1` (centres unmarked) [N,N-diethylnipecotamide], the “In Vivo Release of Growth Hormone in Adult Beagle Dogs” value in the experiment on Growth Hormone release [3] (oral dose 4 mg/kg, time 0 hr, 4 mg/kg) is 1.7 and 0.9; with Growth Hormone release [3] (oral dose 4 mg/kg, time 0.5 hr, 4 mg/kg) it was 57 and 43; with Growth Hormone release [3] (oral dose 4 mg/kg, time 1 hr, 4 mg/kg) it was 13 and 8; in the experiment with Growth Hormone release [3] (oral dose 4 mg/kg, time 6 hr, 4 mg/kg) it was 1.9 and 2.1; with Growth Hormone release [3] (oral dose 4 mg/kg, time 8 hr, 4 mg/kg) it was 1.7 and 0.9; in the experiment with Growth Hormone release [3] (oral dose 4F [sic] (mg/kg; F not explained), time 0 hr), 2.7. Besides, the “In Vivo Release of Growth Hormone in Adult Beagle Dogs” value in the experiment on Growth Hormone release [3] (oral dose 4F [sic] (mg/kg; F not explained), time 2 hr) is recorded as 3.7; in the experiment on Growth Hormone release [3] (oral dose 4F [sic] (mg/kg; F not explained), time 4 hr), 0.9; in the experiment with Growth Hormone release [3] (oral dose 4F [sic] (mg/kg; F not explained), time 5 hr) it was 10; in the experiment on Growth Hormone release [3] (oral dose 4F [sic] (mg/kg; F not explained), time 8 hr), 3.5. Further, the “In Vitro Release of Growth Hormone in Rat, GH” value stood at 418 ng/mL in the experiment with Growth Hormone release [4] (compound at .0001 (dose unit not given)); 395 ng/mL in the experiment with Growth Hormone release [4] (compound at .0003 (dose unit not given)); 489 ng/mL with Growth Hormone release [4] (setting [5]); 536 ng/mL in the experiment on Growth Hormone release [4] (setting [6]); 642 ng/mL with Growth Hormone release [4] (setting [7]). Also, the “In Vivo Release of Growth Hormone in Rat, GH” value with Growth Hormone release [1] (compound at 1 (dose unit not given)) turned out to be 928 ng/mL; in the experiment on Growth Hormone release [1] (setting [8]), 2070 ng/mL; in the experiment on Growth Hormone release [1] (setting [9]), 2896 ng/mL; in the experiment on Growth Hormone release [1] (setting [10]) it was 2186 ng/mL; with Growth Hormone release [1] (setting [11]) it was 221 ng/mL.

As to “N-2-hydroxylethyl-Aib-DTrp-DPro-diisobutylamide [R^1 = -N-2-OHethyl/DPro-diisobutylamide]”, the “In Vivo Release of Growth Hormone in Adult Beagle Dogs” value is 102 and 62 in the experiment on Growth Hormone release [3] (oral dose 1 mg/kg, time 0.5 hr, 1 mg/kg); 26 and 30 with Growth Hormone release [3] (oral dose 1 mg/kg, time 1 hr, 1 mg/kg); 25 and 19 in the experiment with Growth Hormone release [3] (oral dose 1 mg/kg, time 2 hr, 1 mg/kg); 10 in the experiment with Growth Hormone release [3] (oral dose 1 mg/kg, time 3 hr, 1 mg/kg); 6.1 and 3.8 in the experiment with Growth Hormone release [3] (oral dose 1 mg/kg, time 4 hr, 1 mg/kg); 4.0 and 2.5 in the experiment with Growth Hormone release [3] (oral dose 1 mg/kg, time 6 hr, 1 mg/kg). For the same compound, the “In Vitro Release of Growth Hormone in Rat, GH” value is 452 ng/mL in the experiment on Growth Hormone release [4] (setting [5]); 326 ng/mL in the experiment on Growth Hormone release [4] (setting [6]); 526 ng/mL with Growth Hormone release [4] (setting [7]); 820 ng/mL with Growth Hormone release [4] (compound at .03 (dose unit not given)); 1163 ng/mL in the experiment on Growth Hormone release [4] (compound at .1 (dose unit not given)); 1217 ng/mL in the experiment on Growth Hormone release [4] (setting [11]). Also, the “In Vivo Release of Growth Hormone in Rat, GH” value worked out at 156 ng/mL in the experiment on Growth Hormone release [1] (setting [8]), 259 ng/mL in the experiment on Growth Hormone release [1] (setting [9]) and 451 ng/mL with Growth Hormone release [1] (setting [10]).
